Assay results taken from patent US20060004019A1, “Steroid sparing agents and methods of using same” (priority 2004, published 2006).

Test system: rat cardiac allografts
Experiment: Rat cardiac allograft study, Allograft Study 5, dose response (Table 23)
Assay type: in vivo

Compound: CC(C)OC(=O)[C@H](Cc1ccc(OC(=O)N2CCN(C)CC2)cc1)NC(=O)[C@H]1N([S+]([O-])c2cccnc2)CSC1(C)C (stereo partly shown) [listing 1 of 2 here]
- graft survival, data normalized to group size (day 1, 3 mg/kg s.c.): 100%
- graft survival, data normalized to group size (day 2, 3 mg/kg s.c.): 100%
- graft survival, data normalized to group size (day 3, 3 mg/kg s.c.): 100%
- graft survival, data normalized to group size (day 4, 3 mg/kg s.c.): 100%
- graft survival, data normalized to group size (day 5, 3 mg/kg s.c.): 100%
- graft survival, data normalized to group size (day 6, 3 mg/kg s.c.): 100%
- graft survival, data normalized to group size (day 7, 3 mg/kg s.c.): 83%
- graft survival, data normalized to group size (day 8, 3 mg/kg s.c.): 83%
- graft survival, data normalized to group size (day 9, 3 mg/kg s.c.): 50%
- graft survival, data normalized to group size (day 10, 3 mg/kg s.c.): 0%
- graft survival, data normalized to group size (day 11, 3 mg/kg s.c.): 0%
- graft survival, data normalized to group size (day 12, 3 mg/kg s.c.): 0%
- graft survival, data normalized to group size (day 13, 3 mg/kg s.c.): 0%
- graft survival, data normalized to group size (day 14, 3 mg/kg s.c.): 0%

Compound: CC(C)OC(=O)[C@H](Cc1ccc(OC(=O)N2CCN(C)CC2)cc1)NC(=O)[C@H]1N(S(=O)(=O)c2cccnc2)CSC1(C)C [listing 1 of 3 here]
- graft survival, data normalized to group size (day 1, 10 mg/kg s.c.): 100%
- graft survival, data normalized to group size (day 2, 10 mg/kg s.c.): 100%
- graft survival, data normalized to group size (day 3, 10 mg/kg s.c.): 100%
- graft survival, data normalized to group size (day 4, 10 mg/kg s.c.): 100%
- graft survival, data normalized to group size (day 5, 10 mg/kg s.c.): 100%
- graft survival, data normalized to group size (day 6, 10 mg/kg s.c.): 100%
- graft survival, data normalized to group size (day 7, 10 mg/kg s.c.): 100%
- graft survival, data normalized to group size (day 8, 10 mg/kg s.c.): 100%
- graft survival, data normalized to group size (day 9, 10 mg/kg s.c.): 80%
- graft survival, data normalized to group size (day 10, 10 mg/kg s.c.): 80%
- graft survival, data normalized to group size (day 11, 10 mg/kg s.c.): 80%
- graft survival, data normalized to group size (day 12, 10 mg/kg s.c.): 80%
- graft survival, data normalized to group size (day 13, 10 mg/kg s.c.): 40%
- graft survival, data normalized to group size (day 14, 10 mg/kg s.c.): 40%

Compound: CC(C)OC(=O)[C@H](Cc1ccc(OC(=O)N2CCN(C)CC2)cc1)NC(=O)[C@H]1N([S+]([O-])c2cccnc2)CSC1(C)C (stereo partly shown) [listing 2 of 2 here]
- number of surviving grafts (day 0, 3 mg/kg s.c.): 6
- number of surviving grafts (day 1, 3 mg/kg s.c.): 6
- number of surviving grafts (day 2, 3 mg/kg s.c.): 6
- number of surviving grafts (day 3, 3 mg/kg s.c.): 6
- number of surviving grafts (day 4, 3 mg/kg s.c.): 6
- number of surviving grafts (day 5, 3 mg/kg s.c.): 6
- number of surviving grafts (day 6, 3 mg/kg s.c.): 6
- number of surviving grafts (day 7, 3 mg/kg s.c.): 5
- number of surviving grafts (day 8, 3 mg/kg s.c.): 5
- number of surviving grafts (day 9, 3 mg/kg s.c.): 3
- number of surviving grafts (day 10, 3 mg/kg s.c.): 0
- number of surviving grafts (day 11, 3 mg/kg s.c.): 0
- number of surviving grafts (day 12, 3 mg/kg s.c.): 0
- number of surviving grafts (day 13, 3 mg/kg s.c.): 0
- number of surviving grafts (day 14, 3 mg/kg s.c.): 0
- graft survival, data normalized to group size (day 15, 3 mg/kg s.c.): 0%
- number of surviving grafts (day 15, 3 mg/kg s.c.): 0
- graft survival, data normalized to group size (day 16, 3 mg/kg s.c.): 16%
- number of surviving grafts (day 16, 3 mg/kg s.c.): 0
- graft survival, data normalized to group size (day 17, 3 mg/kg s.c.): 17%
- number of surviving grafts (day 17, 3 mg/kg s.c.): 0
- graft survival, data normalized to group size (day 18, 3 mg/kg s.c.): 18%
- number of surviving grafts (day 18, 3 mg/kg s.c.): 0
- graft survival, data normalized to group size (day 19, 3 mg/kg s.c.): 19%
- number of surviving grafts (day 19, 3 mg/kg s.c.): 0
- graft survival, data normalized to group size (day 20, 3 mg/kg s.c.): 20%
- number of surviving grafts (day 20, 3 mg/kg s.c.): 0
- graft survival, data normalized to group size (day 21, 3 mg/kg s.c.): 21%
- number of surviving grafts (day 21, 3 mg/kg s.c.): 0

Compound: CC(C)OC(=O)[C@H](Cc1ccc(OC(=O)N2CCN(C)CC2)cc1)NC(=O)[C@H]1N(S(=O)(=O)c2cccnc2)CSC1(C)C [listing 2 of 3 here]
- number of surviving grafts (day 0, 10 mg/kg s.c.): 5
- number of surviving grafts (day 1, 10 mg/kg s.c.): 5
- number of surviving grafts (day 2, 10 mg/kg s.c.): 5
- number of surviving grafts (day 3, 10 mg/kg s.c.): 5
- number of surviving grafts (day 4, 10 mg/kg s.c.): 5
- number of surviving grafts (day 5, 10 mg/kg s.c.): 5
- number of surviving grafts (day 6, 10 mg/kg s.c.): 5
- number of surviving grafts (day 7, 10 mg/kg s.c.): 5
- number of surviving grafts (day 8, 10 mg/kg s.c.): 5
- number of surviving grafts (day 9, 10 mg/kg s.c.): 4
- number of surviving grafts (day 10, 10 mg/kg s.c.): 4
- number of surviving grafts (day 11, 10 mg/kg s.c.): 4
- number of surviving grafts (day 12, 10 mg/kg s.c.): 4
- number of surviving grafts (day 13, 10 mg/kg s.c.): 2
- number of surviving grafts (day 14, 10 mg/kg s.c.): 2
- graft survival, data normalized to group size (day 15, 10 mg/kg s.c.): 40%
- number of surviving grafts (day 15, 10 mg/kg s.c.): 2
- graft survival, data normalized to group size (day 16, 10 mg/kg s.c.): 20%
- number of surviving grafts (day 16, 10 mg/kg s.c.): 1
- graft survival, data normalized to group size (day 17, 10 mg/kg s.c.): 20%
- number of surviving grafts (day 17, 10 mg/kg s.c.): 1
- graft survival, data normalized to group size (day 18, 10 mg/kg s.c.): 20%
- number of surviving grafts (day 18, 10 mg/kg s.c.): 1
- graft survival, data normalized to group size (day 19, 10 mg/kg s.c.): 20%
- number of surviving grafts (day 19, 10 mg/kg s.c.): 1
- graft survival, data normalized to group size (day 20, 10 mg/kg s.c.): 20%
- number of surviving grafts (day 20, 10 mg/kg s.c.): 1
- graft survival, data normalized to group size (day 21, 10 mg/kg s.c.): 20%
- number of surviving grafts (day 21, 10 mg/kg s.c.): 1

Compound: CC(C)OC(=O)[C@H](Cc1ccc(OC(=O)N2CCN(C)CC2)cc1)NC(=O)[C@H]1N(S(=O)(=O)c2cccnc2)CSC1(C)C [listing 3 of 3 here]
- number of surviving grafts (day 0, 30 mg/kg s.c.): 6
- number of surviving grafts (day 1, 30 mg/kg s.c.): 6
- number of surviving grafts (day 2, 30 mg/kg s.c.): 6
- number of surviving grafts (day 3, 30 mg/kg s.c.): 6
- number of surviving grafts (day 4, 30 mg/kg s.c.): 6
- number of surviving grafts (day 5, 30 mg/kg s.c.): 6
- number of surviving grafts (day 6, 30 mg/kg s.c.): 6
- number of surviving grafts (day 7, 30 mg/kg s.c.): 6
- number of surviving grafts (day 8, 30 mg/kg s.c.): 6
- number of surviving grafts (day 9, 30 mg/kg s.c.): 6
- number of surviving grafts (day 10, 30 mg/kg s.c.): 6
- number of surviving grafts (day 11, 30 mg/kg s.c.): 6
- number of surviving grafts (day 12, 30 mg/kg s.c.): 6
- number of surviving grafts (day 13, 30 mg/kg s.c.): 6
- number of surviving grafts (day 14, 30 mg/kg s.c.): 6
- graft survival, data normalized to group size (day 15, 30 mg/kg s.c.): 100%
- number of surviving grafts (day 15, 30 mg/kg s.c.): 6
- graft survival, data normalized to group size (day 16, 30 mg/kg s.c.): 100%
- number of surviving grafts (day 16, 30 mg/kg s.c.): 6
- graft survival, data normalized to group size (day 17, 30 mg/kg s.c.): 100%
- number of surviving grafts (day 17, 30 mg/kg s.c.): 6
- graft survival, data normalized to group size (day 18, 30 mg/kg s.c.): 100%
- number of surviving grafts (day 18, 30 mg/kg s.c.): 6
- graft survival, data normalized to group size (day 19, 30 mg/kg s.c.): 100%
- number of surviving grafts (day 19, 30 mg/kg s.c.): 6
- graft survival, data normalized to group size (day 20, 30 mg/kg s.c.): 100%
- number of surviving grafts (day 20, 30 mg/kg s.c.): 6
- graft survival, data normalized to group size (day 21, 30 mg/kg s.c.): 83%
- number of surviving grafts (day 21, 30 mg/kg s.c.): 5
